Test results from patent publication US9073955B2, “2-amino-4-arylthiazole compounds as TRPA1 antagonists” (Glenmark Pharmaceuticals, S.A., priority 2010, dated 2015).
Read-outs that look alike come from different tables or passages of the source.

Key:
Human TRPA1 = target: T1, Human TRPA1 (Homo sapiens, UniProt O75762); experiment: 45Calcium uptake assay: inhibition of AITC induced cellular uptake of radioactive calcium; type: cell-based; conditions: human TRPA1 expressing CHO cells, AITC 30 μM; for inhibition at 1 µM: read-out: Percentage inhibition at 1.0 μM; for inhibition at 10 µM: read-out: Percentage inhibition at 10.0 μM
T1 construct: expressed in transfected cells; host or cells: CHO cells (grown with 400 μg/ml G-418)
Description: The illustrative examples of the present invention were screened for TRPA1 activity according to a modified procedure described in (a) Tóth, A. et al. Life Sciences, 2003, 73, 487-498. ([…]. et al, Proc. Natl. Acad. Sci. U.S.A., 2007, 104, 13525-13530. The screening of the compounds can be carried out by other methods and procedures known to persons skilled in the art. Screening for TRPA1 Antagonist Using the ^45Calcium Uptake Assay: The inhibition of TRPA1 receptor activation was measured as inhibition of allyl isothiocyanate (AITC) induced cellular uptake of radioactive calcium. Test compounds were dissolved in 100% DMSO to prepare 10 mM stock and then diluted using plain medium with 0.1% BSA and 1.8 mM CaCl2 to get the desired concentration. The final concentration of DMSO in the reaction was 0.5% (v/v). Human TRPA1 expressing CHO cells were grown in F-12 DMEM medium with 10% FBS, 1% penicillin-streptomycin solution, and 400 μg/ml of G-418. Cells were seeded 24 h prior to the assay in 96 well plates so as to get 50,000 cells per well on the day of experiment. Cells were treated with the test compounds for 10 minutes followed by the addition of AITC at a final concentration of 30 μM and 5 μCi/ml^45Ca^+2 for 3 minutes. Cells were washed and lysed using a buffer containing 1% Triton X-100, 0.1% deoxycholate and 0.1% SDS. Radioactivity in the lysate was measured in a Packard TopCount after addition of liquid scintillant. (Toth et al, Life Sciences (2003) 73, 487-498; McNamara C R et al, Proceedings of the National Academy of Sciences, (2007) 104, 13525-13530). Concentration response curves were plotted as a % of maximal response obtained in the absence of test antagonist. IC50 values can be calculated from concentration response curve by nonlinear regression analysis using GraphPad PRISM software.

[1] = Determination of solubility by shake flask method (water); type: physicochemical; conditions: for aqueous solubility over the parent thiazole acetamide: compared with the corresponding parent compound of formula (1); for solubility at 15 min: thermodynamic from solid, ‘P’ substituted thiazole compound, water, 37° C., shake flask
Description: About 1 mg of test substance was taken in test tube and water was added in the increment of 1 ml with shaking after addition of media (water). Solubility was observed visually also. After completion of addition of 10 ml volume of media (water), test tube containing sample solution were put on a mechanical shaker set at 37° C. and 200 rpm for shaking up to 15 minute. After shaking, content of flask was filtered through 0.45μ filter. This filtered solution is analyzed using HPLC method for quantification. A sample solution of 1 mg in 10 ml of DMSO is used as reference standard for quantifying dissolved test substance in media. Solubility is expressed as mcg/ml.
Aqueous solubility of ‘P’ substituted thiazole compounds and the parent thiazole compounds were determined using the above described procedure and the results are given Table 3.

[2] = Rat pharmacokinetic (PK) study, oral suspension; type: in vivo, male rats (Sprague Dawley); conditions: for pharmacokinetic properties (Cmax and AUC) compared to the parent thiazole acetamide: compared with the corresponding parent compound of formula (1)
Description: PK values were obtained in male rats (strain: Sprague Dawley) orally dosed with the compounds of the present invention as suspension. Accurately weighed quantity of compound of present invention (corrected for purity and salt factor) was transferred into a clean and dry mortar. To this mortar was added 2.5 μL/mL Tween 80 and triturated until the compound gets properly wet. To this, 0.5% (w/v) methyl cellulose suspension was added in geometric proportions and triturated thoroughly to form a uniform suspension.
Animals were provided with food and water ad libitum through out the study period. Animals were dosed orally with the compounds using a gavage needle at 10 mL/kg body weight. Blood samples (250 μl approx.) were collected from male Sprague Dawley retro orbital sinus using rat capillary tubes into 0.6 mL eppendorf tubes with tripotassium ethylenediaminetetraacetic acid (K3 EDTA) (25 μL) as anticoagulant. Samples were collected at 0.5, 1.0, 2.0, 4.0, 6.0, 8.0, 12.0 and 24.0 hr post dosing for compounds. Then samples were centrifuged immediately at 1000 g for 10 min. at 4° C. Plasma samples were separated and stored at −70° C. till analysis. Samples were processed and analyzed using LCMS/MS. Pharmacokinetic parameters were calculated using Winonlin software. Table 4 provides the pK values (Cmax, AUC) obtained in these studies.

T1 sequence (O75762 whole entry): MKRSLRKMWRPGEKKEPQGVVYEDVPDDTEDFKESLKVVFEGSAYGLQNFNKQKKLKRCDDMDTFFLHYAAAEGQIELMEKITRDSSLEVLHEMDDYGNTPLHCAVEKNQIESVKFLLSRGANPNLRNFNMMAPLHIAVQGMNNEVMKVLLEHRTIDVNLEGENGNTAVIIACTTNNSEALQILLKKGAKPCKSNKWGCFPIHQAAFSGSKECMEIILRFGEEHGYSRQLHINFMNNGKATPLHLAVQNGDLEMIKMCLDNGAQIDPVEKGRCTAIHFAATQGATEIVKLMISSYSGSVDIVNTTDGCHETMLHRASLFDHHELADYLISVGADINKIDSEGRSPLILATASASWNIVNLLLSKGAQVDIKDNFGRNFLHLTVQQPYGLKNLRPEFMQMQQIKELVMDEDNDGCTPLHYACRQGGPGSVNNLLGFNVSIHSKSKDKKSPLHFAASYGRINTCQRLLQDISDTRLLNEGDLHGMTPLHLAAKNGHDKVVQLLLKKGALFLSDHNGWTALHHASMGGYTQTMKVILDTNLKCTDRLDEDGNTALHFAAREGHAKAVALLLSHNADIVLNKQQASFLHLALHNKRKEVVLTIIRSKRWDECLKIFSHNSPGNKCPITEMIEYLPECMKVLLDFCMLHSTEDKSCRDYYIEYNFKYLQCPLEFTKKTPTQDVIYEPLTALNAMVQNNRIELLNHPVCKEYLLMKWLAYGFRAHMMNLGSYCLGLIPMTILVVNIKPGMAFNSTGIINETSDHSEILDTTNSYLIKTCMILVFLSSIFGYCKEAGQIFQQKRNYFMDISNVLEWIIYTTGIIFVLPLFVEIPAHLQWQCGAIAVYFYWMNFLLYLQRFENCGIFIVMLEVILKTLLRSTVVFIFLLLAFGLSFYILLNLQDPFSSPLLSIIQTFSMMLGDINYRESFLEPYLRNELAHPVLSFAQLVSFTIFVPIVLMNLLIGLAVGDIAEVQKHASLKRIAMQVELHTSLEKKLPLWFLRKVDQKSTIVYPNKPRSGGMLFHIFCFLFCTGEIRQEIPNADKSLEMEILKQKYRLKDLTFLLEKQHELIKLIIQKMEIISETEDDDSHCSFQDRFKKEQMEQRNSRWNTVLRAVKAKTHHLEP

inhibition at 1 µM (Human TRPA1) | inhibition at 10 µM (Human TRPA1) | IC50 (Human TRPA1) | aqueous solubility over the parent thiazole acetamide [1] | pharmacokinetic properties (Cmax and AUC) compared to the parent thiazole acetamide [2] | solubility at 15 min [1] | inhibition at 1 µM (Human TRPA1; CHO) | inhibition at 10 µM (Human TRPA1; CHO) | Cmax ([2]; rat, plasma, parent thiazole compound of the example, male Sprague Dawley rats, oral suspension) | AUC(0-t) ([2]; rat, plasma, parent thiazole compound of the example, male Sprague Dawley rats, oral suspension, read-out: AUC0-24) | Structure (SMILES)
100% | 99.9% | < 100 nM | better aqueous solubility |  |  |  |  |  |  | Cl.Cn1c(=O)c2c(CC(=O)/N=c3\scc(-c4ccc(F)c(C(F)(F)F)c4F)n3COC(=O)CN)csc2n(C)c1=O [Example 3, [4-[2,4-Difluoro-3-(trifluoromethyl)phenyl]-2-{[(1,3-dimethyl-2,4-dioxo-1,2,3,4-tetrahydrothieno[2,3-d]pyrimidin-5-yl)acetyl]imino}-1,3-thiazol-3 (2H)-yl]methyl glycinate hydrochloride]
89.8% | 98.6% | 100 to 500 nM |  | better pharmacokinetic properties |  |  |  |  |  | CC[C@H](C)[C@H](N)C(=O)OCn1c(-c2ccc(C(F)(F)F)c(F)c2)cs/c1=N\C(=O)Cc1csc2c1c(=O)n(C)c(=O)n2C.Cl [Example 6, [2-{[(1,3-Dimethyl-2,4-dioxo-1,2,3,4-tetrahydrothieno[2,3-d]pyrimidin-5-yl)acetyl]imino}-4-[3-fluoro-4-(trifluoromethyl)phenyl]-1,3-thiazol-3(2H)-yl]methyl L-isoleucinate hydrochloride]
98.6% | 99.6% | < 100 nM |  | better pharmacokinetic properties |  |  |  |  |  | CC[C@H](C)[C@H](N)C(=O)OCn1c(-c2ccc(F)c(C(F)(F)F)c2F)cs/c1=N\C(=O)Cc1csc2c1c(=O)n(C)c(=O)n2C.Cl [Example 7, [4-[2,4-Difluoro-3-(trifluoromethyl)phenyl]-2-{[(1,3-dimethyl-2,4-dioxo-1,2,3,4-tetrahydrothieno[2,3-d]pyrimidin-5-yl)acetyl]imino}-1,3-thiazol-3 (2H)-yl]methyl L-isoleucinate hydrochloride]
90.5% | 89.3% | 100 to 500 nM | better aqueous solubility |  | > 29 µg/mL |  |  |  |  | Cl.Cn1c(=O)c2c(CC(=O)/N=c3\scc(-c4ccc(F)c(C(F)(F)F)c4F)n3COC(=O)C3CCNCC3)csc2n(C)c1=O [Example 10, [4-[2,4-Difluoro-3-(trifluoromethyl)phenyl]-2-{[(1,3-dimethyl-2,4-dioxo-1,2,3,4-tetrahydrothieno[2,3-d]pyrimidin-5-yl)acetyl]imino}-1,3-thiazol-3(2H)-yl]methyl piperidine-4-carboxylate hydrochloride]
 |  | 100 to 500 nM |  |  | > 1200 µg/mL |  |  |  |  | Cn1c(=O)c2c(CC(=O)/N=c3\scc(-c4ccc(F)c(C(F)(F)F)c4F)n3COP(=O)([O-])[O-])csc2n(C)c1=O.[Na+].[Na+] [Example 14, Disodium[4-[2,4-difluoro-3-(trifluoromethyl)phenyl]-2-{[(1,3-dimethyl-2,4-dioxo-1,2,3,4-tetrahydrothieno[2,3-d]pyrimidin-5-yl)acetyl]imino}-1,3-thiazol-3(2H)-yl]methyl phosphate]
96.7% | 96.2% | < 100 nM |  | better pharmacokinetic properties |  |  |  |  |  | Cc1oc2c(c1CC(=O)/N=c1\scc(-c3ccc(OC(F)(F)F)c(Cl)c3)n1COC(=O)CN)c(=O)n(C)c(=O)n2C.Cl [Example 20, [4-[3-Chloro-4-(trifluoromethoxy)phenyl]-2-{[(1,3,6-trimethyl-2,4-dioxo-1,2,3,4-tetrahydrofuro[2,3-d]pyrimidin-5-yl)acetyl]imino}-1,3-thiazol-3 (2H)-yl]methyl glycinate hydrochloride]
91.2% | 97.8% | 100 to 500 nM |  | better pharmacokinetic properties |  |  |  |  |  | Cc1oc2c(c1CC(=O)/N=c1\scc(-c3ccc(OC(F)(F)F)c(Cl)c3)n1COC(=O)C1CCNCC1)c(=O)n(C)c(=O)n2C.Cl [Example 23, [4-[3-Chloro-4-(trifluoromethoxy)phenyl]-2-{[(1,3,6-trimethyl-2,4-dioxo-1,2,3,4-tetrahydrofuro[2,3-d]pyrimidin-5-yl)acetyl]imino}-1,3-thiazol-3 (2H)-yl]methyl piperidine-4-carboxylate hydrochloride]

The next lines start with the molecule.

Structure (SMILES) | inhibition at 1 µM (Human TRPA1) | inhibition at 10 µM (Human TRPA1) | IC50 (Human TRPA1) | aqueous solubility over the parent thiazole acetamide [1] | pharmacokinetic properties (Cmax and AUC) compared to the parent thiazole acetamide [2] | solubility at 15 min [1] | inhibition at 1 µM (Human TRPA1; CHO) | inhibition at 10 µM (Human TRPA1; CHO) | Cmax ([2]; rat, plasma, parent thiazole compound of the example, male Sprague Dawley rats, oral suspension) | AUC(0-t) ([2]; rat, plasma, parent thiazole compound of the example, male Sprague Dawley rats, oral suspension, read-out: AUC0-24)
Cn1c(=O)c2c(CC(=O)/N=c3\scc(-c4ccc(F)c(C(F)(F)F)c4F)n3COP(=O)(O)O)csc2n(C)c1=O [Example 13, [4-[2,4-Difluoro-3-(trifluoromethyl)phenyl]-2-{[(1,3-dimethyl-2,4-dioxo-1,2,3,4-tetrahydrothieno[2,3-d]pyrimidin-5-yl)acetyl]imino}-1,3-thiazol-3 (2H)-yl]methyl dihydrogen phosphate] |  |  | > 500 nM |  |  | > 2.5 µg/mL | 75.3% | 99.3% |  | 
Cc1oc2c(c1CC(=O)/N=c1\scc(-c3ccc(OC(F)(F)F)c(Cl)c3)n1COC(=O)[C@@H](N)C(C)C)c(=O)n(C)c(=O)n2C.Cl [Example 21, [4-[3-Chloro-4-(trifluoromethoxy)phenyl]-2-{[(1,3,6-trimethyl-2,4-dioxo-1,2,3,4-tetrahydrofuro[2,3-d]pyrimidin-5-yl)acetyl]imino}-1,3-thiazol-3(2H)-yl]methyl L-valinate hydrochloride] |  |  | < 100 nM |  | better pharmacokinetic properties |  | 93.8% | 99.9% |  | 
Cn1c(=O)c2c(CC(=O)/N=c3\scc(-c4ccc(C(F)(F)F)c(F)c4F)n3COP(=O)(O)O)nsc2n(C)c1=O [Example 31, [4-[2,3-Difluoro-4-(trifluoromethyl)phenyl]-2-{[(5,7-dimethyl-4,6-dioxo-4,5,6,7-tetrahydro[1,2]thiazolo[5,4-d]pyrimidin-3-yl)acetyl]imino}-1,3-thiazol-3 (2H)-yl]methyl dihydrogen phosphate] | 60% | 99.2% | > 500 nM |  |  |  |  |  |  | 
Cn1c(=O)c2c(CC(=O)N=c3scc(-c4ccc(C(F)(F)F)c(F)c4F)n3COP(=O)(O)O)nsc2n(C)c1=O [Example 32, Disodium-(4-(2,3-difluoro-4-(trifluoromethyl)phenyl)-2-((2-(5,7-dimethyl-4,6-dioxo-4,5,6,7-tetrahydroisothiazolo[5,4-d]pyrimidin-3-yl)acetyl)imino)thiazol-3 (2H)-yl)methyl phosphate] | 13.8% | 81% | > 500 nM |  |  |  |  |  |  | 
Cn1c(=O)c2c(CC(=O)Nc3nc(-c4ccc(C(F)(F)F)c(F)c4F)cs3)nsc2n(C)c1=O [parent of Example 31, N-{4-[2,3-difluoro-4-(trifluoromethyl)phenyl]-1,3-thiazol-2-yl}-2-(5,7-dimethyl-4,6-dioxo-4,5,6,7-tetrahydro[1,2]thiazolo[5,4-d]pyrimidin-3-yl)acetamide, reference compound] |  |  |  |  |  |  |  |  | < 250 ng/mL | < 2500 ng·h/mL
